According to patent US12365692B2, “6-hydroxy-8-oxatricyclo[3.2.1.02,4]octane-2-carboxamide derivatives for inducing chondrogenesis for treating joint damage” (NOVARTIS AG, priority 2018, dated 2025):

Tested on: ALP in NHAC (normal human articular chondrocytes)
Test: Alkaline Phosphatase (ALP) activity assay: ALP staining and quantitation in NHACs (prevention of chondrocyte hypertrophy)
Assay type: cell-based
Conditions: Chondrocyte, 288 h, human IL-1 beta 10 ng/mL, 12 days; for IC50: Fast Blue RR staining, high content imaging; for Emax: read-out: ALP in NHAC (% Efficacy)
Procedure: The compounds of the present invention were evaluated in the Alkaline Phosphatase (ALP) activity assay to determine the ability of the compounds to prevent chondrocyte hypertrophy in normal human articular chondrocytes (NHACs).
Normal human articular chondrocytes (NHACs) were purchased from PromoCell (Heidelberg, Germany) and grown in Chondrocyte Growth Medium (CGM; Lonza, Walkersville, Md.).
NHACs were expanded in Chondrocyte Growth Medium (CGM) from Lonza until they reached a 60-80% confluency. To initiate differentiation, 7,500 cells were plated/well with indicated test compound dose in 384-well Cell Carrier Ultra plates (Perkin Elmer) with DMEM (SH30022—HyClone) containing 10% FBS (35-015-CV—Corning), 1% Pen/Strep antibiotics (SV30010—HyClone), and 1% Normocin (50 mg/mL—InvivoGen). Cells with test compounds were incubated at 37° C., 5% CO2 for 5 hours and then added human IL-1 beta (AF-200-1B—Peprotech) to each well at a final concentration of 10 ng/mL and incubated at 37° C., 5% CO2 for 12 days.
To detect the presence of hypertrophic cells, NHACs were fixed with 4% paraformaldehyde and Hoechst 33342 (Invitrogen) dye for 30 minutes, rinsed in PBS, then stained with Fast Blue RR Salt (F0500—Sigma) with Naphthol AS-MX Phosphate Alkaline Solution, 0.25% (855—Sigma-Aldrich).
The staining was imaged by fluoresecent microscopy, using the 561 nm wavelength, and/or quantified by high content imaging with the ImageXpress Confocal (Molecular Devices, Sunnyvale, CA). Data analyses were performed with a customized multiwavelength cell-scoring application The activity of the compounds of the present invention in the ALP assay is summarized in Table 2.

| Structure (SMILES) | IC50 [µM] | Emax [%] |
| --- | --- | --- |
| COc1cc([C@@]23C[C@]2(C(=O)Nc2cc(C(F)(F)F)c(Cl)cn2)[C@H]2C[C@H](O)[C@@H]3O2)ccn1 (racemic) [Example 22, rac-(1R,2R,4S,5R,6S)—N-(5-chloro-4-(trifluoromethyl)pyridin-2-yl)-6-hydroxy-4-(2-methoxypyridin-4-yl)-8-oxatricyclo[3.2.1.02,4]octane-2-carboxamide] | > 30 | 27 |
| COc1cc([C@@]23C[C@]2(C(=O)Nc2cc(C(F)(F)F)cc(C4CC4)n2)[C@H]2C[C@H](O)[C@@H]3O2)ccn1 (racemic) [Example 23, rac-(1R,2R,4S,5R,6S)—N-(6-cyclopropyl-4-(trifluoromethyl)pyridin-2-yl)-6-hydroxy-4-(2-methoxypyridin-4-yl)-8-oxatricyclo[3.2.1.02,4]octane-2-carboxamide] | > 30 | 4 |
| COc1cc([C@@]23C[C@]2(C(=O)Nc2cc(C(F)(F)F)cc(C)n2)[C@H]2C[C@H](O)[C@@H]3O2)ccn1 (racemic) [Example 24, rac-(1R,2R,4S,5R,6S)-6-hydroxy-4-(2-methoxypyridin-4-yl)-N-(6-methyl-4-(trifluoromethyl)pyridin-2-yl)-8-oxatricyclo[3.2.1.02,4]octane-2-carboxamide] | > 30 | 25 |
| CCOc1cc(C(F)(F)F)cc(NC(=O)[C@]23C[C@@]2(c2ccnc(OC)c2)[C@H]2O[C@@H]3C[C@@H]2O)n1 (racemic) [Example 25, rac-(1R,2R,4S,5R,6S)—N-(6-ethoxy-4-(trifluoromethyl)pyridin-2-yl)-6-hydroxy-4-(2-methoxypyridin-4-yl)-8-oxatricyclo[3.2.1.02,4]octane-2-carboxamide] | > 30 | 0 |
| COc1cc([C@@]23C[C@]2(C(=O)Nc2cccc(C(F)(F)F)c2)[C@H]2C[C@H](O)[C@@H]3O2)ccn1 (racemic) [Example 26, rac-(1R,2R,4S,5R,6S)-6-hydroxy-4-(2-methoxypyridin-4-yl)-N-(3-(trifluoromethyl)phenyl)-8-oxatricyclo[3.2.1.02,4]octane-2-carboxamide] | > 30 | 5 |
| COc1cc([C@@]23C[C@]2(C(=O)Nc2cccc(C(F)(F)F)c2C)[C@H]2C[C@H](O)[C@@H]3O2)ccn1 (racemic) [Example 27, rac-(1R,2R,4S,5R,6S)-6-hydroxy-4-(2-methoxypyridin-4-yl)-N-(2-methyl-3-(trifluoromethyl)phenyl)-8-oxatricyclo[3.2.1.02,4]octane-2-carboxamide] | > 30 | 0 |
| COc1cc([C@@]23C[C@]2(C(=O)Nc2ccc(C)c(C(F)(F)F)c2)[C@H]2C[C@H](O)[C@@H]3O2)ccn1 (racemic) [Example 28, rac-(1R,2R,4S,5R,6S)-6-hydroxy-4-(2-methoxypyridin-4-yl)-N-(4-methyl-3-(trifluoromethyl)phenyl)-8-oxatricyclo[3.2.1.02,4]octane-2-carboxamide] | > 30 | 13 |
| COc1cc([C@@]23C[C@]2(C(=O)Nc2cc(C)cc(C(F)(F)F)c2)[C@H]2C[C@H](O)[C@@H]3O2)ccn1 (racemic) [Example 29, rac-(1R,2R,4S,5R,6S)-6-hydroxy-4-(2-methoxypyridin-4-yl)-N-(3-methyl-5-(trifluoromethyl)phenyl)-8-oxatricyclo[3.2.1.02,4]octane-2-carboxamide] | 10 | 74 |
| COc1cc([C@@]23C[C@]2(C(=O)Nc2cc(C(F)(F)F)ccc2C)[C@H]2C[C@H](O)[C@@H]3O2)ccn1 (racemic) [Example 30, rac-(1R,2R,4S,5R,6S)-6-hydroxy-4-(2-methoxypyridin-4-yl)-N-(2-methyl-5-(trifluoromethyl)phenyl)-8-oxatricyclo[3.2.1.02,4]octane-2-carboxamide] | > 30 | 27 |
| COc1cc([C@@]23C[C@]2(C(=O)Nc2cccc(C(F)(F)F)c2F)[C@H]2C[C@H](O)[C@@H]3O2)ccn1 (racemic) [Example 31, rac-(1R,2R,4S,5R,6S)—N-(2-fluoro-3-(trifluoromethyl)phenyl)-6-hydroxy-4-(2-methoxypyridin-4-yl)-8-oxatricyclo[3.2.1.02,4]octane-2-carboxamide] | > 30 | 15 |
| COc1cc([C@@]23C[C@]2(C(=O)Nc2ccc(F)c(C(F)(F)F)c2)[C@H]2C[C@H](O)[C@@H]3O2)ccn1 (racemic) [Example 32, rac-(1R,2R,4S,5R,6S)—N-(4-fluoro-3-(trifluoromethyl)phenyl)-6-hydroxy-4-(2-methoxypyridin-4-yl)-8-oxatricyclo[3.2.1.02,4]octane-2-carboxamide] | > 30 | 4 |
| COc1cc([C@@]23C[C@]2(C(=O)Nc2cc(C(F)(F)F)ccc2F)[C@H]2C[C@H](O)[C@@H]3O2)ccn1 (racemic) [Example 33, rac-(1R,2R,4S,5R,6S)—N-(2-fluoro-5-(trifluoromethyl)phenyl)-6-hydroxy-4-(2-methoxypyridin-4-yl)-8-oxatricyclo[3.2.1.02,4]octane-2-carboxamide] | > 30 | 12 |
| COc1cc([C@@]23C[C@]2(C(=O)Nc2ccc(OC)c(C(F)(F)F)c2)[C@H]2C[C@H](O)[C@@H]3O2)ccn1 (racemic) [Example 34, rac-(1R,2R,4S,5R,6S)-6-hydroxy-N-(4-methoxy-3-(trifluoromethyl)phenyl)-4-(2-methoxypyridin-4-yl)-8-oxatricyclo[3.2.1.02,4]octane-2-carboxamide] | > 30 | 0 |
| COc1cc(NC(=O)[C@]23C[C@@]2(c2ccnc(OC)c2)[C@H]2O[C@@H]3C[C@@H]2O)cc(C(F)(F)F)c1 (racemic) [Example 35, rac-(1R,2R,4S,5R,6S)-6-hydroxy-N-(3-methoxy-5-(trifluoromethyl)phenyl)-4-(2-methoxypyridin-4-yl)-8-oxatricyclo[3.2.1.02,4]octane-2-carboxamide] | > 30 | 0 |
| COc1cc([C@@]23C[C@]2(C(=O)Nc2cc(C(F)(F)F)ccc2OC)[C@H]2C[C@H](O)[C@@H]3O2)ccn1 (racemic) [Example 36, rac-(1R,2R,4S,5R,6S)-6-hydroxy-N-(2-methoxy-5-(trifluoromethyl)phenyl)-4-(2-methoxypyridin-4-yl)-8-oxatricyclo[3.2.1.02,4]octane-2-carboxamide] | 18 | 65 |
| COc1cc([C@@]23C[C@]2(C(=O)Nc2cc(C(F)(F)F)cc(C(F)(F)F)c2)[C@H]2C[C@H](O)[C@@H]3O2)ccn1 (racemic) [Example 37, rac-(1R,2R,4S,5R,6S)—N-(3,5-bis(trifluoromethyl)phenyl)-6-hydroxy-4-(2-methoxypyridin-4-yl)-8-oxatricyclo[3.2.1.02,4]octane-2-carboxamide] | > 30 | 0 |
| COc1cc([C@@]23C[C@]2(C(=O)Nc2ccc(C#N)c(C(F)(F)F)c2)[C@H]2C[C@H](O)[C@@H]3O2)ccn1 (racemic) [Example 38, rac-(1R,2R,4S,5R,6S)—N-(4-cyano-3-(trifluoromethyl)phenyl)-6-hydroxy-4-(2-methoxypyridin-4-yl)-8-oxatricyclo[3.2.1.02,4]octane-2-carboxamide] | 24 | 71 |
| COc1cc([C@@]23C[C@]2(C(=O)Nc2cc(C(F)(F)F)ccc2C#N)[C@H]2C[C@H](O)[C@@H]3O2)ccn1 (racemic) [Example 39, rac-(1R,2R,4S,5R,6S)—N-(2-cyano-5-(trifluoromethyl)phenyl)-6-hydroxy-4-(2-methoxypyridin-4-yl)-8-oxatricyclo[3.2.1.02,4]octane-2-carboxamide] | 0.081 | 92 |
| Cn1cc([C@@]23C[C@]2(C(=O)Nc2ccc(C(F)(F)F)c(Cl)c2)[C@H]2C[C@H](O)[C@@H]3O2)c(C(F)(F)F)n1 (racemic) [Example 40, rac-(1R,2R,4S,5R,6S)—N-(3-chloro-4-(trifluoromethyl)phenyl)-6-hydroxy-4-(1-methyl-3-(trifluoromethyl)-1H-pyrazol-4-yl)-8-oxatricyclo[3.2.1.02,4]octane-2-carboxamide] | 9.5 | 91 |
| Cn1cc([C@@]23C[C@]2(C(=O)Nc2ccc(C(F)(F)F)c(F)c2)[C@H]2C[C@H](O)[C@@H]3O2)c(C(F)(F)F)n1 (racemic) [Example 41, rac-(1R,2R,4S,5R,6S)-N-(3-fluoro-4-(trifluoromethyl)phenyl)-6-hydroxy-4-(1-methyl-3-(trifluoromethyl)-1H-pyrazol-4-yl)-8-oxatricyclo[3.2.1.02,4]octane-2-carboxamide] | 3.1 | 84 |
| Cn1cc([C@@]23C[C@]2(C(=O)Nc2ccc(C(F)(F)F)cc2)[C@H]2C[C@H](O)[C@@H]3O2)c(C(F)(F)F)n1 (racemic) [Example 42, rac-(1R,2R,4S,5R,6S)-6-hydroxy-4-(1-methyl-3-(trifluoromethyl)-1H-pyrazol-4-yl)-N-(4-(trifluoromethyl)phenyl)-8-oxatricyclo[3.2.1.02,4]octane-2-carboxamide] | > 30 | 46 |
